Experimental data: patent publication US4925848A, “Derivative of codeine useful as an agonist and process for the preparation of it” (Reckitt & Colman Products Limited, priority 1987, dated 1990)
Converted amounts (≈) assume the structure as drawn. “Also recorded” adds a separate entry of the source.

Legend:
[1] = system: drug reinforcing effects in rhesus monkeys; test: Self-administration study in codeine-trained rhesus monkeys (drug reinforcing effects); format: in vivo, rhesus monkey; settings: for response rates maintained compared with codeine: similar conditions, FIGS. 2 and 3
Method: Drug reinforcing effects were evaluated in rhesus monkeys trained to respond for 0.32 mg/kg/iv injection of codeine.

mu opioid receptor = biological target: T1, mu opioid receptor (Mus musculus, UniProt P42866); test: Mouse vas deferens preparation (MVD), mu receptor (normorphine); format: cell-based; settings: in vitro MVD; for Kb: antagonist of normorphine, read-out: ke, μ
T1 construct: mu agonist normorphine
T1 sequence (P42866 whole entry): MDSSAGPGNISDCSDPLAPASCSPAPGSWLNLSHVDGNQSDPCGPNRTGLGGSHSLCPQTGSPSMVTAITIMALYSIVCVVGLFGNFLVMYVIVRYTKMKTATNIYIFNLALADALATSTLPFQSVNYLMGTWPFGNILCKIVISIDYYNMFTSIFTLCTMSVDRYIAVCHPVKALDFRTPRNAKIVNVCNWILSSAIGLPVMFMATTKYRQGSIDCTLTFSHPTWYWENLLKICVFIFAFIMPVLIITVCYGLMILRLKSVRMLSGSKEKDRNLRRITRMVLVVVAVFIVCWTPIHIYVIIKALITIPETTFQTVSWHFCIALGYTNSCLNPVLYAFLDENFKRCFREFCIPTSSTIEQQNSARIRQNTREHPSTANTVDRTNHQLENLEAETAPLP
Text: (§1) To obtain some insight into the profiles at opioid receptor subtypes compounds of formula III where R=H, Cl, Br and Me were therefore examined in isolated tissue preparations. Comparative data on the previously disclosed dehydro compounds of formula III is also included. The results obtained in the mouse was deferens preparation (MVD)(Henderson et al Brit J Pharmacol., 46,764, 1972) for these compounds are shown in Table 2. Although the unsubstituted compounds (R=H) were full agonists in this test situation no delta-agonist properties could be detected. […] The corresponding methyl and bromo dihydro compounds were antagonists with the rank order of affinities: mu>delta>kappa.
(§2) ke = Molar concentration of antagonist at which twice the concentration o
(§3) the agonist was required to produce the same response as that produced in
(§4) the absence of the antagonist; μ Agonist = Normorphine (NM); kAgonist
(§5) Ethylketocyclazocine; dAgonist = DAla-D-Leu Enkephalin.

opioid receptor subtypes = test: Mouse vas deferens preparation (MVD), agonist/antagonist profile at opioid receptor subtypes; format: cell-based; settings: for rank order of affinities: antagonists
Text: as §1, §2, §3, §4, §5

kappa and mu receptors = test: DMPP stimulated guinea pig ileum (GPI) preparation (kappa and mu test); format: cell-based; settings: in words
Text: *In the guinea pig ileum preparation (GPI), as described on page 268 of […]

delta opioid receptor = biological target: T2, delta opioid receptor (Mus musculus, UniProt P32300); test: Mouse vas deferens preparation (MVD), delta receptor (DAla-D-Leu enkephalin); format: cell-based; settings: for Kb: antagonist of DAla-D-Leu enkephalin, read-out: ke, d
T2 construct: delta agonist DAla-D-Leu enkephalin
T2 sequence (P32300 whole entry): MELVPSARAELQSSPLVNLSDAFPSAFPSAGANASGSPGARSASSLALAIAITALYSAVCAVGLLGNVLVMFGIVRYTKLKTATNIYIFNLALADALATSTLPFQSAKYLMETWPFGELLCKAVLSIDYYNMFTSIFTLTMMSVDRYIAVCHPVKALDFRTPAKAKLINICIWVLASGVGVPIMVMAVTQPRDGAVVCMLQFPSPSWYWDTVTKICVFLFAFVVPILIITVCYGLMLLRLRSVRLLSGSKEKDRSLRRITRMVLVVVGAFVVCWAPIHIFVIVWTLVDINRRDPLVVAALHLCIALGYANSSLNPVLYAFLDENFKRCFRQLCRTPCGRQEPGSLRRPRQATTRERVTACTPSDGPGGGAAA
Text: as §1, §2, §3, §4, §5

kappa opioid receptor = test: Mouse vas deferens preparation (MVD), kappa receptor (ethylketocyclazocine); format: cell-based; settings: in vitro MVD; antagonist of ethylketocyclazocine; read-out: ke, k
Text: as §1, §2, §3, §4, §5

[2] = system: morphine antagonist activity; settings: s.c., reported in a response filed during prosecution of the corresponding U.S. application; cited from earlier work
[3] = system: rat tail pressure antinociception; test: Rat tail pressure (RTP) antinociceptive test; format: in vivo; settings: for agonist activity in the RPT test: in words
Text: Compounds of formula III were initially examined in two antinociceptive tests (in vivo) to assess their analgesic potential and are shown in the following Table 1. These tests were:
(2) The rat tail pressure (RTP) which is described by Green and Young, (Br. J. Pharmac Chemother., 6,572, 1951).

delta receptor = biological target: T3, delta receptor (Mus musculus, UniProt P32300); test: MVD agonist effects of compound I in absence/presence of RX 8008M or naltrexone; format: cell-based
T3 construct: agonism of compound I with delta-selective antagonist RX or mu-selective naltrexone
T3 sequence (P32300 whole entry): as above
Text: ^a Groups (n = 2-6) of MVD used in each treatment schedule.
^b IC40 is the concentration of agonist required to reduce the
maximal contraction to electrical stimulation by 40 percent. The slow
values in the presence or absence of the antagonists in the same

mu receptor = test: GPI preparation, mu receptor agonism; format: cell-based, guinea pig; settings: in words
kappa receptor = kappa receptor (Cavia porcellus, UniProt P41144); test: GPI preparation, kappa receptor agonism; format: cell-based, guinea pig; settings: in words
kappa receptor, sequence (P41144 whole entry): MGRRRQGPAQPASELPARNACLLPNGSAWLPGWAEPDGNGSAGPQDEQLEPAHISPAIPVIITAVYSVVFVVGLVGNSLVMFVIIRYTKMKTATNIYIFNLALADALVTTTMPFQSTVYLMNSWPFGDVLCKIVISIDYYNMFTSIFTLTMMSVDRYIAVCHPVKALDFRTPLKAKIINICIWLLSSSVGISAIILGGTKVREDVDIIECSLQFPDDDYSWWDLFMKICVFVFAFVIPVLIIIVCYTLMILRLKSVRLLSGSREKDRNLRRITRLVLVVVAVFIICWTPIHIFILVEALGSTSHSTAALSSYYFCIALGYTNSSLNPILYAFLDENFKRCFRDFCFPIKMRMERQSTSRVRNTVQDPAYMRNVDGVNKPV

COc1ccc2c3c1O[C@H]1C(=O)CC[C@@]4(NC(=O)C=Cc5ccc(Br)cc5)[C@@H](C2)N(CC2CC2)CC[C@]314 [Br dihydro]
response rates maintained compared with codeine [1]: appropriately equal to the level of responding maintained by codeine | Kb (mu opioid receptor): 0.00032 µM | rank order of affinities (opioid receptor subtypes; in vitro MVD): mu>delta>kappa | MVD activity profile (opioid receptor subtypes; in vitro MVD, in words): antagonists | agonist activity in MVD (opioid receptor subtypes; in words): negligible agonist activity | GPI dose-response curve / agonist activity (kappa and mu receptors): negligible agonist activity | Kb (delta opioid receptor; in vitro MVD): 0.0086 µM | Kb (kappa opioid receptor): 0.0273 µM

COc1ccc2c3c1O[C@H]1C(=O)C=C[C@@]4(NC(=O)C=Cc5ccccc5)[C@@H](C2)N(CC2CC2)CC[C@]314 [Ex. 15]
agonist potency relative to normorphine (× NM) (mu opioid receptor): 200 × NM | MVD activity profile (opioid receptor subtypes; in vitro MVD, in words): μ and k-Agonist

COc1ccc2c3c1O[C@H]1C(=O)C=C[C@@]4(NC(=O)C=Cc5ccc(Cl)cc5)[C@@H](C2)N(CC2CC2)CC[C@]314 [Ex. 91]
EC40 (opioid receptor subtypes; Mus musculus, in vitro MVD, Table 2, read-out: ED40 (μ + k-agonism)): > 300 ng/mL | MVD activity profile (opioid receptor subtypes; in vitro MVD, in words): Weak μ + k-Agonist | delta agonism in MVD (delta opioid receptor; in vitro MVD, in words): No d-agonism detected

COc1ccc2c3c1O[C@H]1C(=O)C=C[C@@]4(NC(=O)C=Cc5ccc(C)cc5)[C@@H](C2)N(CC2CC2)CC[C@]314 [Ex. 92]
MVD activity profile (opioid receptor subtypes; in vitro MVD, in words): Partial μ Agonist

O=CN[C@@]12C=CC(=O)[C@@H]3Oc4c(O)ccc5c4[C@@]31CCN(CC1CC1)[C@@H]2C5 [Example 49]
AD50 (RTF test) [2]: 0.132 mg/kg | agonist activity in the RPT test [3]: neither the dehydro compound (Example 49) nor the dihydro compound (Example 108) exhibited agonist activity

O=CN[C@@]12CCC(=O)[C@@H]3Oc4c(O)ccc5c4[C@@]31CCN(CC1CC1)[C@@H]2C5 [Example 108]
AD50 (RTF test) [2]: 0.16 mg/kg | agonist activity in the RPT test [3]: neither the dehydro compound (Example 49) nor the dihydro compound (Example 108) exhibited agonist activity

COc1ccc2c3c1O[C@H]1C(=O)CC[C@@]4(NC(=O)C=Cc5ccccc5)[C@@H](C2)N(CC2CC2)CC[C@]314 [H dihydro]
agonist potency relative to normorphine (× NM) (mu opioid receptor): 72,000 × NM | MVD activity profile (opioid receptor subtypes; in vitro MVD, in words): μ Agonist | delta agonism in MVD (delta opioid receptor; in vitro MVD, in words): No d-agonism detected

COc1ccc2c3c1O[C@H]1C(=O)CC[C@@]4(NC(=O)C=Cc5ccc(Cl)cc5)[C@@H](C2)N(CC2CC2)CC[C@]314 [I, 14-β-p-chlorocinnamoylamino-7,8-dihydro-N-cyclopropylmethyl-norcodeinone]
IC40 (delta receptor): 0.098 ng/mL | IC40 in presence of RX 8008M (delta receptor; MVD, + RX 8008M (10 ng/ml)): 9.15 + 3.4 ng/ml | IC40 in presence of naltrexone (delta receptor; MVD, + naltrexone (100 ng/ml)): 1.44 + 0.01 ng/ml | response rates maintained compared with saline ([1]; 0.0003-0.01 mg/kg, i.v., substituted for codeine, single 130 minute sessions, FIG. 1): identical to those maintained by saline | mu agonist activity in GPI (mu receptor; DMPP stimulated GPI): low intrinsic activity mu agonist | intrinsic activity at mu receptors, in vitro summary (mu receptor): low intrinsic acitivity at mu receptors | GPI dose-response curve / agonist activity (kappa and mu receptors): very shallow dose-response curve | antagonism of GPI response by RX 8008M (kappa and mu receptors; RX 8008M (25 nM)): atagonised by RX 8008M (25 nM) | EC40 (delta opioid receptor; in vitro MVD, Table 2, read-out: ED40 (d-agonism)): 3.1 ng/mL (≈ 5.97 nM) | delta agonism in MVD (delta opioid receptor; in vitro MVD, in words): delta-agonist activity; also recorded: d-Agonist | intrinsic activity at delta-receptors, in vitro summary (delta opioid receptor; in words): substantial level of intrinsic activity at delta-receptors

COc1ccc2c3c1O[C@H]1C(=O)CC[C@@]4(NC(=O)C=Cc5ccc(C)cc5)[C@@H](C2)N(CC2CC2)CC[C@]314 [Me dihydro]
response rates maintained compared with codeine [1]: appropriately equal to the level of responding maintained by codeine | Kb (mu opioid receptor): 0.00028 µM | kappa agonist activity in GPI (kappa receptor): predominantly kappa partial agonist activity | rank order of affinities (opioid receptor subtypes; in vitro MVD): mu>delta>kappa | MVD activity profile (opioid receptor subtypes; in vitro MVD, in words): antagonists | Kb (delta opioid receptor; in vitro MVD): 0.0193 µM | Kb (kappa opioid receptor): 0.0663 µM

COc1ccc(C=CC(=O)N[C@@]23CCC(=O)[C@@H]4Oc5c(OC)ccc6c5[C@@]42CCN(CC2CC2)[C@@H]3C6)cc1 [OMe dihydro]
RTP, percent effect ([3]; at 1 mg/kg, Table 1): 40%
